In US12497371B2, “DRP-1 inhibitors as therapeutic agents” (The Florida International University Board of Trustees, priority 2023, dated 2025):

Assays:
[1] = test system: cell proliferation; conditions: background statement; cited from earlier work
[2] = test system: lung cancer tumor; conditions: xenograft mouse model; background statement; cited from earlier work
[3] = test system: cardiac ischemia-reperfusion injury; conditions: background statement; cited from earlier work
[4] = test system: eNAMPT-mediated mitochondrial fission; assay: eNAMPT-mediated mitochondrial fission; type: cell-based; conditions: FIG. 5A
Method: (§1) FIGS. 5A-5C show the validation of novel Drp1 inhibitors as therapeutics against VILI. Three novel Drp1 inhibitors identified in the Drp1 GTPase assay were tested for their ability to attenuate eNAMPT-mediated mitochondrial fission (5A). One of the compounds CTS2444-32 was further tested in mice exposed to high tidal mechanical ventilation (40 mL/kg, PEEP=5 cm H2O, BR=75 bpm, 4 h). […] Values are mean±SEM, n=4. *P<0.05 vs. spontaneously breathing control, †P<0.05 vs. DMSO+VILI.
Three lead compounds (FIG. 4) were selected for further testing. These compounds are referred to as CTS (Center for Translational Science) 2444-19, CTS2444-20, and CTS2444-32. These compounds were examined for their ability to prevent eNAMPT-mediated mitochondrial fission.

[5] = target: T1, dynamin 1 (Homo sapiens, UniProt Q05193); conditions: background statement; cited from earlier work
T1 sequence (Q05193 1-864): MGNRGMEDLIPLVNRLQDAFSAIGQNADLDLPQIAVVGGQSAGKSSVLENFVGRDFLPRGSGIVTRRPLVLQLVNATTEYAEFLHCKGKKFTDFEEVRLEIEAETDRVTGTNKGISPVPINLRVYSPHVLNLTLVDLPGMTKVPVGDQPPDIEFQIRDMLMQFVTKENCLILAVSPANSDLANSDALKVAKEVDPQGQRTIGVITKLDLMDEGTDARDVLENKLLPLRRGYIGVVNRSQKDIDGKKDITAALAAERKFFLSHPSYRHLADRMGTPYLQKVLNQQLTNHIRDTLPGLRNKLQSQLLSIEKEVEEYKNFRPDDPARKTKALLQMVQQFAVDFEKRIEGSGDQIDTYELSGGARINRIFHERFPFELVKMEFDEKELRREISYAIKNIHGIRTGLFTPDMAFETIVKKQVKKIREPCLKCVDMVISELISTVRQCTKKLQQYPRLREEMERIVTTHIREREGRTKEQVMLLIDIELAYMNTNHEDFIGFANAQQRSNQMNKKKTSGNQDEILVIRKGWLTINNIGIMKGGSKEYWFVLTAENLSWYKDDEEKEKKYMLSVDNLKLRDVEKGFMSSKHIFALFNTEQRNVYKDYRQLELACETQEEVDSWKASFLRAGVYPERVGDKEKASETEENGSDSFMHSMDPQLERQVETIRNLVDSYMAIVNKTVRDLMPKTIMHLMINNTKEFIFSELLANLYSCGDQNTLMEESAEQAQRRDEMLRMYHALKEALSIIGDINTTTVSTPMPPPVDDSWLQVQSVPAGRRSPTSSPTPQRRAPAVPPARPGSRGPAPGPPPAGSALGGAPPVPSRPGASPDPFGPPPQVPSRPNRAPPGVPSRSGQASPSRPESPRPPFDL

[6] = target: T2, dynamin 2 (Homo sapiens, UniProt P50570); conditions: background statement; cited from earlier work
T2 sequence (P50570 1-870): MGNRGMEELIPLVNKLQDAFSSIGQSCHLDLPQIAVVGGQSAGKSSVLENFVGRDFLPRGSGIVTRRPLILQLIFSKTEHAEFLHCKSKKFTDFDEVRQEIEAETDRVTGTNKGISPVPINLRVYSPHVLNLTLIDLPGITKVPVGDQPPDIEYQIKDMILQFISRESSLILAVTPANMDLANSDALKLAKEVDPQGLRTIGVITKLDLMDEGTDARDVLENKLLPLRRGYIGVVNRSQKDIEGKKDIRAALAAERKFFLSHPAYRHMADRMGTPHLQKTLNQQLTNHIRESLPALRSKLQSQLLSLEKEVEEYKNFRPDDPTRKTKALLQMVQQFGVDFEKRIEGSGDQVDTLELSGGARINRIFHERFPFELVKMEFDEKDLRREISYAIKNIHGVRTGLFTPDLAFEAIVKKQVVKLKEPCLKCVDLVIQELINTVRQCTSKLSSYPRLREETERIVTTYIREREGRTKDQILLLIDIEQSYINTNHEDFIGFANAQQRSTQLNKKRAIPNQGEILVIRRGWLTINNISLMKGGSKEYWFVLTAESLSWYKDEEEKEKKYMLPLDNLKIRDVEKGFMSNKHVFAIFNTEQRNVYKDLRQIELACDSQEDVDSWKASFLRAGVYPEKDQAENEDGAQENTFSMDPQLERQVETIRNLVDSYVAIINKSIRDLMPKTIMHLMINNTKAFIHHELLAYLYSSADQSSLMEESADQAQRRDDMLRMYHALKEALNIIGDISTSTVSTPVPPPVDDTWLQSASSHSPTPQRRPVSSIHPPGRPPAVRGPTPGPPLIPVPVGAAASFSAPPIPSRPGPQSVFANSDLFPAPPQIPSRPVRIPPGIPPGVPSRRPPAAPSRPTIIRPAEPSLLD

[7] = test system: lung EC; assay: LPS (TLR4)-dependent mitochondrial fission in lung EC; type: cell-based; conditions: LPS 2 EU/ml, 4 h; FIG. 1C
Method: TLR^4 ligation with LPS (2 EU/ml, 4 h) also increases mitochondrial fission and this is blocked by the putative Drp1 inhibitor, mdivi-1 (1C). Data are mean±SEM. N=3-10. P<0.05 vs. control.
Using immunofluorescence microscopy, increased mitochondrial localization of Drp1 was observed (FIG. 1B).

[8] = test system: Drp1 GTPase; conditions: background statement; cited from earlier work
[9] = test system: complex I; conditions: background statement; cited from earlier work
[10] = test system: ventilator-induced lung injury (VILI); assay: VILI model: mice exposed to high tidal mechanical ventilation; type: in vivo; conditions: 10 mg/kg, i.p., 2 h
Method: as §1
CTS2444-32 (10 mg/kg, i.p., 2 h) attenuated the VILI-mediated increase in the levels of TNFα (6A), IL-6 (6B), IL-18 (6C), GROα, (6D), MIP-1α (6E), MIP-1β(6F), MCP-1 (6G), MCP-3 (6H), and IL-12p70 (6I) in the BALF. Values are mean±SEM, n=4. *P<0.05 vs. spontaneously beathing control, †P<0.05 vs. DMSO+VILI.
To validate Drp1 as a therapeutic target, four preclinical VILI/ARDS models are used: i) VILI; ii) a “two-hit” model of polymicrobial sepsis (cecal ligation and puncture, CLP) in addition to mechanical ventilation; iii) a “two-hit” COV19-pneumonia model consisting of the delivery of the COVID19 spike protein combined with mechanical ventilation and iv) the ARDS-like extended lung inflammation model in which the mice are exposed long-term to LPS. Therapeutic agents are given before the initiation of injury in the VILI-only model or at the beginning of mechanical ventilation in the “two-hit” models, or 4 d after LPS exposure in the extended lung inflammation model to mimic the situation of a critically ill patient in the ICU.

[11] = test system: mouse primary microglia; assay: Paraquat-treated primary microglia, qPCR of inflammatory mRNA; type: cell-based; conditions: 6 h
Method: Microglia cells were treated with paraquat (PQ) in the presence or absence of compound 2444-32. The mRNA levels of IL-1β and RelA were analyzed. Microglia isolated from Drp1+/− pups was used as a positive control.
Neuroinflammation is commonly observed in Parkinson's disease (PD) and other neurodegenerative diseases. The role of activated microglia in causing neuroinflammation by upregulating the levels of pro-inflammatory cytokines such as IL-1β and relA is implicated in PD. The protective effects of one lead compound (2444-32) was evaluated using mouse primary microglia isolated from newborn pups. As shown in the FIG. 7, these cells were treated for with paraquat (PQ), a herbicide that has been linked to increasing the risk of developing PD, in the presence or absence of compound 2444-32. After 6 h, RNA was isolated for qPCR analysis. There was a dramatic increase in the levels of IL-1β and RelA mRNA. […] As a positive control model for a partial loss of Drp1 function, microglia isolated from Drp1+/− pups was used, which express approximately 50% of Drp1 as compared to their wild-type littermates. Significant reduction in neuroinflammation was also detected in these mutant microglia treated with PQ, indicating the protective effects of 2444-32 was most likely mediated through reduced Drp1 function, not off-target effects.

[12] = test system: LUHMES cells; assay: α-synuclein PFF aggregation in LUHMES cells (pS129 immunostaining); type: cell-based, human; conditions: PFF 24 h, then 20 μM compound for 48 h
Method: To determine the therapeutic potential of compound 2444-32 against α-synuclein, human dopaminergic neuronal cells (LUHMES cells) were treated with human α-synuclein pre-formed fibrils (PFF). After 24 h incubation, cell culture media containing PFF was removed and replaced with fresh media containing 20 μM of compound 2444-32 or vehicle control. Cells were incubated for a further 48 h before having media removed and processed for immunostaining for pS129 α-synuclein, a pathogenic form of α-synuclein. α-synuclein protein aggregates were then quantified using the IMARIS (Oxford instruments) software.

## O=C1c2ccncc2C(=O)c2c1[nH]c1ccccc21 [Drpitor1a]
[1]
  cell proliferation: reduce cell proliferation
[2]
  lung cancer tumor growth: suppress lung cancer tumor growth
[3]
  protection against cardiac ischemia-reperfusion injury: protect against cardiac ischemia-reperfusion injury

## CCCCNc1nc(CN2CCN(C(=O)CC3CC4CCC3C4)CC2)cs1 (centres unmarked) [Compound 2444-20]
[4]
  increase in fission induced by eNAMPT: prevent the increase in fission induced by eNAMPT

## O=C(N/N=C/c1ccc(O)c(O)c1)c1cc2ccccc2cc1O [Dynasore]
[5]
  inhibition of dynamin 1: blocks
[6]
  inhibition of dynamin 2: blocks

## COc1cc(-n2c(=S)[nH]c3ccccc3c2=O)c(Cl)cc1Cl [mdivi-1]
[7]
  TLR4-dependent mitochondrial fission: decreases TLR4-dependent mitochondrial fission
[8]
  inhibition of Drp1 GTPase activity: weak and non-specific inhibitor
[9]
  inhibition of complex I: reversible inhibitor

## O=C(CC1CC2CCC1C2)N1CCN(Cc2csc(NCC3CCC3)n2)CC1 (centres unmarked) [Compound 2444-32]
[4]
  increase in fission induced by eNAMPT: prevent the increase in fission induced by eNAMPT
[10]; FIG. 6A
  VILI-mediated increase in TNFα in BALF: attenuated
[10]; FIG. 6B
  VILI-mediated increase in IL-6 in BALF: attenuated
[10]; FIG. 6C
  VILI-mediated increase in IL-18 in BALF: attenuated
[10]; FIG. 6D
  VILI-mediated increase in GROα in BALF: attenuated
[10]; FIG. 6E
  VILI-mediated increase in MIP-1α in BALF: attenuated
[10]; FIG. 6F
  VILI-mediated increase in MIP-1β in BALF: attenuated
[10]; FIG. 6G
  VILI-mediated increase in MCP-1 in BALF: attenuated
[10]; FIG. 6H
  VILI-mediated increase in MCP-3 in BALF: attenuated
[10]; FIG. 6I
  VILI-mediated increase in IL-12p70 in BALF: attenuated
[10]; high tidal ventilation 40 mL/kg, 4 h, FIG. 5B
  total cell counts in bronchoalveolar lavage (BAL) fluid: decreases
[10]; high tidal ventilation 40 mL/kg, 4 h, FIG. 5C
  protein in bronchoalveolar lavage (BAL) fluid: decreases
[10]; mice exposed to VILI
  lung injury: decreases lung injury
[11]
  paraquat-induced increase in IL-1β mRNA: significantly attenuated
  paraquat-induced increase in RelA mRNA: significantly attenuated
[12]
  α-synuclein aggregation (puncta): significantly reduced

## O=C(Cc1ccc(Cl)c(Cl)c1)N1CCN(Cc2csc(NCC3(c4ccccc4)CC3)n2)CC1 [Compound 2444-19]
[4]
  increase in fission induced by eNAMPT: not
